Values after ≈ are worked out from the molar mass of the structure shown.
Legend:
[1] = Minimum inhibitory concentration in mice against antimicrobial activity in […] (PISP 49619).; assay type: functional; settings: Streptococcus pneumoniae
Staphylococcus aureus = assay: Minimum inhibitory concentration in mice against antimicrobial activity in methicillin-resistant Staphylococcus aureus(MRSA 27660).; assay type: functional
Enterococcus faecalis = assay: Minimum inhibitory concentration in mice against antimicrobial activity in vancomycin-sensitive Enterococcus faecalis (VSEF 29212).
Mus musculus [2] = species on record: Mus musculus; assay: Minimum inhibitory concentration was evaluated in mice against antimicrobial activity in […] (PISP 49619); 0.5-2; assay type: functional
Mus musculus [3] = species on record: Mus musculus; assay: Minimum inhibitory concentration was evaluated in mice against antimicrobial activity in […] Enterococcus faecalis (VSEF 29212); 2-8; assay type: functional
Mus musculus [4] = species on record: Mus musculus; assay: Minimum inhibitory concentration was evaluated in mice against antimicrobial activity in […] (PISP 49619); 1-32; assay type: functional

Row | Compound | MIC [1] | MIC (Staphylococcus aureus) | MIC (Enterococcus faecalis) | MIC (Mus musculus [2]) | MIC (Mus musculus [3]) | MIC (Mus musculus [4])
1 | CC(C)n1cc(NC(=O)c2cc(NC(=O)c3cc(NC(=O)c4sccc4Cl)cn3C)cn2C)cc1C(=O)NCCN1CCOCC1 | 0.25 µg/mL (≈ 0.374 µM) | 1 µg/mL (≈ 1.49 µM) | 1 µg/mL (≈ 1.49 µM) |  |  | 
2 | Cn1cc(NC(=O)c2ccc(NC(=O)c3cc(NC(=O)c4ccncn4)cn3C)cc2)cc1C(=O)NCCN1CCOCC1 | 0.5 µg/mL (≈ 0.834 µM) | > 32 µg/mL | 32 µg/mL (≈ 53.4 µM) |  |  | 
3 | CC(C)n1cc(NC(=O)c2sccc2Cl)cc1C(=O)Nc1cc(C(=O)Nc2cc(C(=O)NCCN3CCOCC3)n(C)c2)n(C)c1 | 2 µg/mL (≈ 2.99 µM) | 4 µg/mL (≈ 5.98 µM) | 4 µg/mL (≈ 5.98 µM) |  |  | 
4 | Cn1cc(NC(=O)c2cc(NC(=O)c3cc(NC(=O)c4cc5ccccc5cn4)cn3C)nn2C)cc1C(=O)NCCN1CCOCC1 | 0.25 µg/mL (≈ 0.383 µM) | 0.5 µg/mL (≈ 0.766 µM) | 1 µg/mL (≈ 1.53 µM) |  |  | 
5 | Cn1cc(NC(=O)c2cc(NC(=O)c3cc(NC(=O)c4sccc4Cl)cn3C)c[nH]2)cc1C(=O)NCCN1CCOCC1 |  | 8 µg/mL (≈ 12.8 µM) |  | 2 µg/mL (≈ 3.19 µM) | 8 µg/mL (≈ 12.8 µM) | 
6 | Cn1cc(NC(=O)c2cc(NC(=O)c3nc(NC(=O)c4cc5ccccc5cn4)cn3C)cn2C)cc1C(=O)NCCN1CCOCC1 | 0.25 µg/mL (≈ 0.383 µM) | 1 µg/mL (≈ 1.53 µM) | 1 µg/mL (≈ 1.53 µM) |  |  | 
7 | Cn1cc(NC(=O)c2cc(NC(=O)c3cc(NC(=O)c4sccc4Cl)cn3C)nn2C)cc1C(=O)NCCN1CCOCC1 |  | 32 µg/mL (≈ 49.8 µM) | > 32 µg/mL |  |  | 32 µg/mL (≈ 49.8 µM)
8 | Cn1cc(NC(=O)c2ccc(NC(=O)c3cc(NC(=O)c4ccc(F)cc4F)cn3C)cc2)cc1C(=O)NCCN1CCOCC1 | 0.5 µg/mL (≈ 0.789 µM) | 32 µg/mL (≈ 50.5 µM) | 8 µg/mL (≈ 12.6 µM) |  |  | 
9 | Cn1cc(NC(=O)c2cc(NC(=O)c3cc(NC(=O)c4cc5ccccc5cn4)on3)cn2C)cc1C(=O)NCCN1CCOCC1 | 0.13 µg/mL (≈ 0.203 µM) | 0.06 µg/mL (≈ 0.0938 µM) | 0.5 µg/mL (≈ 0.782 µM) |  |  | 
10 | Cn1cc(NC(=O)c2ccc(NC(=O)c3cc(NC(=O)c4sc5ccccc5c4Cl)cn3C)cc2)cc1C(=O)NCCN1CCOCC1 | 0.25 µg/mL (≈ 0.363 µM) | > 32 µg/mL | 16 µg/mL (≈ 23.2 µM) |  |  | 
11 | Cn1cc(NC(=O)c2ccc(NC(=O)c3cc(NC(=O)c4ccccn4)cn3C)cc2)cc1C(=O)NCCN1CCOCC1 | 0.5 µg/mL (≈ 0.835 µM) | > 32 µg/mL | > 32 µg/mL |  |  | 
12 | CC(C)n1cc(NC(=O)c2cc(NC(=O)c3sccc3Cl)cn2C)cc1C(=O)Nc1cc(C(=O)NCCN2CCOCC2)n(C)c1 | 0.5 µg/mL (≈ 0.747 µM) | 1 µg/mL (≈ 1.49 µM) | 1 µg/mL (≈ 1.49 µM) |  |  | 
13 | Cn1cc(NC(=O)c2ccc(NC(=O)c3cc(NC(=O)c4cnc5ccccc5c4)cn3C)cc2)cc1C(=O)NCCN1CCOCC1 | 2 µg/mL (≈ 3.08 µM) | > 32 µg/mL | > 32 µg/mL |  |  | 
14 | Cn1cc(NC(=O)c2sccc2Cl)cc1C(=O)Nc1cc(C(=O)Nc2c[nH]c(C(=O)NCCN3CCOCC3)c2)n(C)c1 | 8 µg/mL (≈ 12.8 µM) | 16 µg/mL (≈ 25.5 µM) | 32 µg/mL (≈ 51 µM) |  |  | 
15 | Cn1cc(NC(=O)c2ccc(NC(=O)c3cc(NC(=O)c4nccc5ccccc45)cn3C)cc2)cc1C(=O)NCCN1CCOCC1 | 0.25 µg/mL (≈ 0.385 µM) | 1 µg/mL (≈ 1.54 µM) | 2 µg/mL (≈ 3.08 µM) |  |  | 
16 | Cn1cc(NC(=O)c2nc(NC(=O)c3cc(NC(=O)c4sccc4Cl)cn3C)cn2C)cc1C(=O)NCCN1CCOCC1 | 16 µg/mL (≈ 24.9 µM) | > 32 µg/mL | > 32 µg/mL |  |  | 
17 | Cn1cc(NC(=O)c2sccc2Cl)cc1C(=O)Nc1cc(C(=O)Nc2cc(C(=O)NCCN3CCOCC3)n(C)n2)n(C)c1 | > 32 µg/mL | > 32 µg/mL | > 32 µg/mL |  |  | 
18 | Cn1cc(NC(=O)c2cc(NC(=O)c3cc(NC(=O)c4cc5ccccc5cn4)cn3C)cn2C)cc1C(=O)NCCN1CCOCC1 | 0.06 µg/mL (≈ 0.0921 µM) | 0.5 µg/mL (≈ 0.767 µM) | 0.25 µg/mL (≈ 0.384 µM) |  |  | 
19 | Cn1cc(NC(=O)c2ccc(NC(=O)c3cc(NC(=O)c4sccc4Cl)cn3C)cc2)cc1C(=O)NCCN1CCOCC1 | 1 µg/mL (≈ 1.57 µM) | 8 µg/mL (≈ 12.5 µM) | 2 µg/mL (≈ 3.13 µM) |  |  | 
20 | Cn1cc(NC(=O)c2sccc2Cl)cc1C(=O)Nc1cc(C(=O)Nc2cn(C)c(C(=O)NCCN3CCOCC3)n2)n(C)c1 | > 32 µg/mL | > 32 µg/mL | > 32 µg/mL |  |  | 

Reference: ChEMBL document CHEMBL1137975, “DNA binding ligands with in vivo efficacy in murine models of bacterial infection: optimization of internal aromatic amino acids” (2004)
